Measured values as given in patent US9844542B2, “Substituted imidazopyridine and triazolopyridine compounds as negative allosteric modulators of mGluR5” (Vanderbilt University, priority 2013, dated 2017).

What follows are compounds tested against T1, rat mGluR5 (Rattus norvegicus, UniProt P31424) (assay: mGluR5 calcium mobilization assay (FDSS, Fluo-4) in HEK 293A cells stably expressing rat mGluR5). Conditions: HEK cells transfected with rat mGluR5; antagonism of glutamate EC80 response; ± = standard error of at least three experiments.
T1 construct: expressed in transfected cells
T1 sequence (P31424 21-1171 isoform P31424-2 limits assumed): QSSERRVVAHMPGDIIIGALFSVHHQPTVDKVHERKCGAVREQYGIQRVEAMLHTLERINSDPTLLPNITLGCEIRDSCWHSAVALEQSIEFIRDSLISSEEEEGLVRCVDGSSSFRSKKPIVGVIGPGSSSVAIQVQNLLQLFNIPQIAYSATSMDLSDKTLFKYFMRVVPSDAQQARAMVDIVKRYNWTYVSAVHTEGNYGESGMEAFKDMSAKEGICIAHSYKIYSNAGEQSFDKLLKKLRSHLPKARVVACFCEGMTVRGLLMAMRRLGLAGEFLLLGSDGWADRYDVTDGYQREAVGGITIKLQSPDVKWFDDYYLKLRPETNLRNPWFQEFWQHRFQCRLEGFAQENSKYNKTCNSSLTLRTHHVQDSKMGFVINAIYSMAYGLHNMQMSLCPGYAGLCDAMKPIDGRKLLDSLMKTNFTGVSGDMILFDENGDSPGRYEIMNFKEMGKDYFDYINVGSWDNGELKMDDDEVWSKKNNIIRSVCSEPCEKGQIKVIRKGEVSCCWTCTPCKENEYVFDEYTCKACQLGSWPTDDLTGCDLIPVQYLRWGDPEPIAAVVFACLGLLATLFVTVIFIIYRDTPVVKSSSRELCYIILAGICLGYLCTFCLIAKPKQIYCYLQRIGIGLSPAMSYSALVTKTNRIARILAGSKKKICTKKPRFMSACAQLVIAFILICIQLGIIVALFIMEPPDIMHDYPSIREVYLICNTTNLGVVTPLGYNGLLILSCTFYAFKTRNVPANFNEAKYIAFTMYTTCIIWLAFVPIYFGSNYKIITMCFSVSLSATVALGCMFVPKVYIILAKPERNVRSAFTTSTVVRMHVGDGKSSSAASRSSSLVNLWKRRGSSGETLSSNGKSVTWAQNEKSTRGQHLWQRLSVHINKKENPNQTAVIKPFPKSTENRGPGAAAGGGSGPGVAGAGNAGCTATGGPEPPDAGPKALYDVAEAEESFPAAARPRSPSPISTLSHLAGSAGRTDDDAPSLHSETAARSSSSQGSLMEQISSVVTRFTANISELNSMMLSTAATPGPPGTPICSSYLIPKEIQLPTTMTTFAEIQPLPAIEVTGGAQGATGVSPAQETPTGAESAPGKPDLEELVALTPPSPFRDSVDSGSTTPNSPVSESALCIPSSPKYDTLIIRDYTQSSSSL
Type: cell-based
Description: Human embryonic kidney (HEK) cells transfected with rat or human mGluR5 were plated in clear bottom assay plates for assay in a Functional Drug Screening System (FDSS). The cells were loaded with a Ca^2+-sensitive fluorescent dye (e.g., Fluo-4), and the plates were washed and placed in the FDSS instrument. Test compound was applied to cells 3 seconds after baseline readings were taken. Cells were incubated with the test compounds for 140 seconds and then stimulated with an EC20 concentration of an mGluR5 agonist (e.g., glutamate, 3,5-dihydroxyphenylglycine, or quisqualate); 60-80 seconds later an EC80 concentration of agonist was added and readings taken for an additional 40 seconds. Data were collected at 1 Hz. […] Concentration response curves were generated using a four parameter logistical equation.
The above described assay was operated in two modes. In the first mode (utilizing a triple add protocol), a range of concentrations of the present compounds were added to cells, followed by two single fixed concentrations of agonist (EC20 followed by EC80). If a compound acted as a potentiator, an EC50 value for potentiation of the EC20 response and a maximum extent of potentiation by the compound at this concentration of agonist was determined by non-linear curve fitting. If a compound acted as an antagonist, an IC50 value for antagonism of the EC80 response and a maximum extent of antagonism by the compound at this concentration of agonist was determined by non-linear curve fitting. In the second mode (utilizing a double add protocol), several fixed concentrations of the present compounds were added to various wells on a plate, followed by a range of concentrations of agonist for each concentration of present compound; the EC50 values for the agonist at each concentration of compound were determined by nonlinear curve fitting. A decrease in the EC50 value of the agonist with increasing concentrations of the present compounds (a leftward shift of the agonist concentration-response curve) is an indication of the degree of mGluR5 positive allosteric modulation at a given concentration of the present compound. An increase in the EC50 value of the agonist with increasing concentrations of the present compounds (a rightward shift of the agonist concentration response curve) is an indication of the degree of mGluR5 antagonism at a given concentration of the present compound. The second mode also indicates whether the present compounds also affect the maximum response to mGluR5 to agonists.
The mGluR5 activity was determined using the calcium mobilization assays in human embryonic kidney cells as described herein below, wherein the human embryonic kidney cells were transfected with rat mGluR5. The mGluR5 activity data for some compounds are shown as the average of at least three experiments with the standard error in these cases. If no error is indicated for the mGluR5 activity, the values given represent the results from a single experiment or the average of two experiments. The compounds in Table 1 were synthesized with methods identical or analogous to those shown herein. The requisite starting materials were commercially available, described in the literature, or readily synthesized by one skilled in the art of organic synthesis.
GluMax is the amplitude of response in the presence of 30 μM test compound as a percentage of maximal response (100 μM glutamate). Partial antagonists display concentration-response curves (CRCs) that plateau above 10%.
The preparation of rat mGluR5 stable cell-lines is as previously described (e.g. see Romano et al. J Biol. Chem. 1996 Nov. 8; 271(45):28612-6).
For O=C(Nc1ccccn1)c1cc(Oc2cncc(F)c2)cn2ccnc12, the IC50 was 0.016 µM. For [2H]c1nc(NC(=O)c2cc(Oc3cncc(F)c3)cn3ccnc23)c([2H])c([2H])c1[2H], the IC50 was 0.015 µM. O=C(Nc1ccccn1)c1cc(Oc2cncc(F)c2)cn2cnnc12 was tested, and the IC50 was 0.033 µM. Work on [2H]c1nc(NC(=O)c2cc(Oc3cncc(F)c3)cn3cnnc23)c([2H])c([2H])c1[2H] yielded an IC50 of 0.045 µM. With O=C(Nc1cc(F)ccn1)c1cc(Oc2cncc(F)c2)cn2cnnc12 the IC50 was 1.17 µM. Work on Cc1ccc(NC(=O)c2cc(Oc3cncc(F)c3)cn3cnnc23)nc1 yielded an IC50 of 0.077 µM. COc1ccc(NC(=O)c2cc(Oc3cncc(F)c3)cn3cnnc23)nc1 showed an IC50 of 0.082 µM. For O=C(Nc1cccc(F)n1)c1cc(Oc2cncc(F)c2)cn2cnnc12, the IC50 was 0.05 µM. With Cc1cccc(NC(=O)c2cc(Oc3cncc(F)c3)cn3cnnc23)n1 the IC50 was 0.073 µM. In the case of CCc1cccc(NC(=O)c2cc(Oc3cncc(F)c3)cn3cnnc23)n1, the IC50 is reported as 0.168 µM. Work on COc1cccc(NC(=O)c2cc(Oc3cncc(F)c3)cn3cnnc23)n1 yielded an IC50 of 0.146 µM. Cc1nc(NC(=O)c2cc(Oc3cncc(F)c3)cn3cnnc23)ccc1F gave an IC50 of 0.164 µM. Compound Cc1csc(NC(=O)c2cc(Oc3cncc(F)c3)cn3c(C)nnc23)n1 has an IC50 of 0.426 µM. Cc1nnc2c(C(=O)Nc3ccccn3)cc(Oc3cncc(F)c3)cn12 gave an IC50 of 0.172 µM. Cc1nnc2c(C(=O)Nc3ccc(F)cn3)cc(Oc3cncc(F)c3)cn12 was tested, and the IC50 was 0.36 µM. Compound Cc1ccc(NC(=O)c2cc(Oc3cncc(F)c3)cn3c(C)nnc23)nc1 has an IC50 of 1.31 µM. For Cc1nnc2c(C(=O)Nc3cccc(F)n3)cc(Oc3cncc(F)c3)cn12, the IC50 was 1.07 µM. In the case of CCc1cccc(NC(=O)c2cc(Oc3cncc(F)c3)cn3c(C)nnc23)n1, the IC50 is reported as 1.18 µM. In the case of Cc1csc(NC(=O)c2cc(Oc3cncc(F)c3)cn3ncnc23)n1, the IC50 is reported as 0.049 µM. With O=C(Nc1ccccn1)c1cc(Oc2cncc(F)c2)cn2ncnc12 the IC50 was 0.025 µM. [2H]c1nc(NC(=O)c2cc(Oc3cncc(F)c3)cn3ncnc23)c([2H])c([2H])c1[2H] gave an IC50 of 0.043 µM. O=C(Nc1cc(F)ccn1)c1cc(Oc2cncc(F)c2)cn2ncnc12 gave an IC50 of 0.723 µM. Cc1ccc(NC(=O)c2cc(Oc3cncc(F)c3)cn3ncnc23)nc1 was tested, and the IC50 was 0.053 µM. Work on COc1ccc(NC(=O)c2cc(Oc3cncc(F)c3)cn3ncnc23)nc1 yielded an IC50 of 0.068 µM. O=C(Nc1cccc(F)n1)c1cc(Oc2cncc(F)c2)cn2ncnc12 was tested, and the IC50 was 0.031 µM. Cc1cccc(NC(=O)c2cc(Oc3cncc(F)c3)cn3ncnc23)n1 gave an IC50 of 0.058 µM. Work on CCc1cccc(NC(=O)c2cc(Oc3cncc(F)c3)cn3ncnc23)n1 yielded an IC50 of 0.101 µM. For COc1cccc(NC(=O)c2cc(Oc3cncc(F)c3)cn3ncnc23)n1, the IC50 was 0.07 µM. In the case of Cc1csc(NC(=O)c2cc(Oc3cncc(F)c3)cn3nc(C)nc23)n1, the IC50 is reported as 0.135 µM. Cc1nc2c(C(=O)Nc3ccccn3)cc(Oc3cncc(F)c3)cn2n1 gave an IC50 of 0.097 µM. Cc1nc2c(C(=O)Nc3ccc(F)cn3)cc(Oc3cncc(F)c3)cn2n1 showed an IC50 of 0.31 µM. For Cc1ccc(NC(=O)c2cc(Oc3cncc(F)c3)cn3nc(C)nc23)nc1, the IC50 was 0.468 µM. Compound Cc1nc2c(C(=O)Nc3cccc(F)n3)cc(Oc3cncc(F)c3)cn2n1 has an IC50 of 0.41 µM. Cc1cccc(NC(=O)c2cc(Oc3cncc(F)c3)cn3nc(C)nc23)n1 gave an IC50 of 0.199 µM. COc1cncc(Oc2cc(C(=O)Nc3cccc(C)n3)c3nncn3c2)c1 showed an IC50 of 2.15 µM. Compound COc1cccc(NC(=O)c2cc(Oc3cncc(C)c3)cn3ncnc23)n1 has an IC50 of 0.26 µM. COc1cncc(Oc2cc(C(=O)Nc3cccc(F)n3)c3nncn3c2)c1 was tested, and the IC50 was 4.13 µM. For COc1ccc(NC(=O)c2cc(Oc3cncc(C)c3)cn3ncnc23)nc1, the IC50 was 0.275 µM. Compound [2H]c1nc(NC(=O)c2cc(Oc3cncc(OC)c3)cn3cnnc23)c([2H])c([2H])c1[2H] has an IC50 of 1.23 µM. Work on COc1cncc(Oc2cc(C(=O)Nc3ccccn3)c3ncnn3c2)c1 yielded an IC50 of 0.099 µM. With COc1cncc(Oc2cc(C(=O)Nc3ccc(C)cn3)c3nncn3c2)c1 the IC50 was 3.6 µM. COc1ccc(NC(=O)c2cc(Oc3cncc(OC)c3)cn3ncnc23)nc1 showed an IC50 of 0.331 µM. COc1cncc(Oc2cc(C(=O)Nc3ccccn3)c3nncn3c2)c1 showed an IC50 of 0.897 µM. With COc1cncc(Oc2cc(C(=O)Nc3cccc(OC)n3)c3nncn3c2)c1 the IC50 was > 10 µM. COc1cncc(Oc2cc(C(=O)Nc3ccc(F)c(C)n3)c3nncn3c2)c1 showed an IC50 of 10.3 µM. COc1cncc(Oc2cc(C(=O)Nc3cccc(C)n3)c3ncnn3c2)c1 gave an IC50 of 0.175 µM. Compound [2H]c1nc(NC(=O)c2cc(Oc3cncc(OC)c3)cn3ncnc23)c([2H])c([2H])c1[2H] has an IC50 of 0.104 µM. In the case of COc1cncc(Oc2cc(C(=O)Nc3cccc(F)n3)c3ncnn3c2)c1, the IC50 is reported as 0.258 µM. For COc1cncc(Oc2cc(C(=O)Nc3ccc(C)cn3)c3ncnn3c2)c1, the IC50 was 0.218 µM. In the case of Cc1cncc(Oc2cc(C(=O)Nc3cccc(C)n3)c3ncnn3c2)c1, the IC50 is reported as 0.16 µM. Compound O=C(Nc1ccccn1)c1cc(Oc2cncc(Cl)c2)cn2ccnc12 has an IC50 of 0.033 µM. Work on N#Cc1cncc(Oc2cc(C(=O)Nc3ccccn3)c3ncnn3c2)c1 yielded an IC50 of 0.105 µM. Work on N#Cc1cncc(Oc2cc(C(=O)Nc3ccc(F)cn3)c3nccn3c2)c1 yielded an IC50 of 0.051 µM. With O=C(Nc1ccc(F)cn1)c1cc(Oc2cncc(Cl)c2)cn2ccnc12 the IC50 was 0.076 µM. With N#Cc1cncc(Oc2cc(C(=O)Nc3ccc(F)cn3)c3nncn3c2)c1 the IC50 was 1.43 µM. Cc1csc(NC(=O)c2cc(Oc3cncc(C#N)c3)cn3cnnc23)n1 was tested, and the IC50 was 1.21 µM. N#Cc1cncc(Oc2cc(C(=O)Nc3ccccn3)c3nncn3c2)c1 was tested, and the IC50 was 0.674 µM. For Cc1csc(NC(=O)c2cc(Oc3cncc(C#N)c3)cn3ncnc23)n1, the IC50 was 0.193 µM. With Cc1csc(NC(=O)c2cc(Oc3cncc(Cl)c3)cn3ccnc23)n1 the IC50 was 0.182 µM. Compound Cc1csc(NC(=O)c2cc(Oc3cncc(C#N)c3)cn3ccnc23)n1 has an IC50 of 0.127 µM. O=C(Nc1ccccn1)c1cc(Oc2cnc(F)c(F)c2)cn2ncnc12 showed an IC50 of 0.052 µM. In the case of O=C(Nc1ccc(F)cn1)c1cc(Oc2cnc(F)c(F)c2)cn2ncnc12, the IC50 is reported as 0.059 ± 0.011 µM. Cc1csc(NC(=O)c2cc(Oc3cnc(F)c(F)c3)cn3ncnc23)n1 was tested, and the IC50 was 0.119 µM. Work on O=C(Nc1ccccn1)c1cc(Oc2cncc(O)c2)cn2ncnc12 yielded an IC50 of 0.044 µM. With O=C(Nc1ccc(F)cn1)c1cc(Oc2cncc(O)c2)cn2ncnc12 the IC50 was 0.04 µM. Cc1csc(NC(=O)c2cc(Oc3cc(F)cnc3F)cn3ncnc23)n1 showed an IC50 of 0.11 µM. Compound O=C(Nc1ccc(F)cn1)c1cc(Oc2cc(F)cnc2F)cn2ncnc12 has an IC50 of 0.138 µM. O=C(Nc1ccccn1)c1cc(Oc2cc(F)cnc2F)cn2ncnc12 gave an IC50 of 0.086 µM. O=C(Nc1ccc(F)cn1)c1cc(Oc2cncc(OC(F)F)c2)cn2ncnc12 was tested, and the IC50 was 0.127 µM. O=C(Nc1ccccn1)c1cc(Oc2cncc(F)c2F)cn2ncnc12 gave an IC50 of 0.036 µM. O=C(Nc1ccc(F)cn1)c1cc(Oc2cncc(F)c2F)cn2ncnc12 was tested, and the IC50 was 0.041 ± 0.002 µM. Cc1csc(NC(=O)c2cc(Oc3cncc(F)c3F)cn3ncnc23)n1 was tested, and the IC50 was 0.083 µM. Compound CCc1cccc(NC(=O)c2cc(Oc3cnc(F)c(F)c3)cn3ncnc23)n1 has an IC50 of 0.559 µM. Cc1cccc(NC(=O)c2cc(Oc3cnc(F)c(F)c3)cn3ncnc23)n1 was tested, and the IC50 was 0.128 µM. O=C(Nc1nc(C(F)(F)F)cs1)c1cc(Oc2cncnc2)cn2ncnc12 was tested, and the IC50 was 0.535 µM. In the case of O=C(Nc1nc(C2CC2)cs1)c1cc(Oc2cncnc2)cn2ncnc12, the IC50 is reported as 0.161 µM. O=C(Nc1nc(CF)cs1)c1cc(Oc2cncnc2)cn2ncnc12 showed an IC50 of 0.244 µM. O=C(Nc1nc(C(F)F)cs1)c1cc(Oc2cncnc2)cn2ncnc12 was tested, and the IC50 was 0.214 µM. Cc1nc(NC(=O)c2cc(Oc3cncnc3)cn3ncnc23)sc1F was tested, and the IC50 was 0.15 µM.
